Laboratory results: patent US8871948B2, “(Aza)indole derivative substituted in position 5, pharmaceutical composition comprising it, intermediate compounds and preparation process therefor” (Aziende Chimiche Riunite Angelini Francesco A.C.R.A.F.S.p.A., priority 2007, dated 2014)

Key:
[1] = test system: production of PGF2α in human pulmonary adenocarcinoma cell line A549; assay: Inhibition of PGF2α production in IL-1β-stimulated A549 cells (EIA); type: cell-based; conditions: for IC50: IL-1β stimulated, read-out: pIC50 PGF2α (converted)
From the text: (§1) The test used makes it possible to evaluate the inhibitory capacity of the test compounds on the production of PGE2 and the selectivity relative to the production of PGF2α. The human pulmonary adenocarcinoma cell line A549 was used, which is particularly sensitive to stimulation with proinflammatory cytokines, for instance IL-1β, and, in response to this stimulation, is particularly active in the production and release of two prostanoids: PGE2 and PGF2α (Thoren S. Jakobsson P-J, 2000).
(§2) The cells were stimulated with IL-1β (10 ng/ml) and simultaneously treated with the test compound for 22 hours in a suitable culture medium (DMEM Dulbecco's Modified Eagles Medium) enriched with 5% fetal calf serum and L-glutamine (4 mM final) in an incubator at 37° C. and with a CO2 concentration of 5%.
(§3) At the end of the incubation, the amount of PGE2 and PGF2α produced and released into the supernatant were assayed using an EIA kit (produced and sold by Cayman Chemicals, Ann Arbor, Mich., USA).
(§4) The comparative compound used was indomethacin at a concentration of 10 nM (Sigma-Aldrich), which is a non-steroidal anti-inflammatory drug that inhibits in equal measure both PGE2 and PGF2α.
(§5) For illustrative purposes, Table 3 collates the pIC50 values of a number of compounds of the invention, where pIC50 represents the negative logarithm of the IC50, which, in turn, represents the concentration of compound that inhibits the production of PGE2 or PGF2α by 50% relative to cells that are stimulated but not treated with the same compound.

[2] = test system: production of PGE2 in human pulmonary adenocarcinoma cell line A549 (mPGES-1); assay: Inhibition of PGE2 production in IL-1β-stimulated A549 cells (EIA); type: cell-based; conditions: for IC50: IL-1β stimulated, read-out: pIC50 PGE2 (converted)
From the text: as §1, §2, §3, §4, §5

[3] = test system: production of PGE2 in human lymphoma cell line U-937 (cPGES); assay: Inhibition of PGE2 production in U-937 cells (selectivity between isoforms of PGES); type: cell-based; conditions: basal conditions
From the text: The test used makes it possible to evaluate the capacity of the compounds of the invention to inhibit the production of PGE2 in a human lymphoma cell line U-937 that preferentially expresses an enzymatic isoform (cPGES), which is responsible for the production of PGE2 under basal conditions, in the absence of pro-inflammatory stimuli. This enzymatic form is different from the one predominantly expressed in the A549 cells (mPGES-1) after a pro-inflammatory stimulus.
The absence of inhibitory activity on PGE2 in this cell model ensures the selectivity of the compound compared with the enzymatic form responsible for the production of PGE2 in the presence of inflammatory stimuli.
The reference compound used was indomethacin at a concentration of 10 nM.

[4] = test system: acetic acid-induced stretching in mice; assay: Acetic acid-induced stretching in mice; type: in vivo; conditions: female CD-1 mice; for N° of stretches: 20 minutes after acetic acid; for % inhibition (stretches): vs vehicle (MTC)
Method: The test compound was evaluated in the model of acetic acid-induced stretching in mice (Stock J. L. et al., J Clin Inv 2001, 107: 325-331). This test makes it possible to evaluate the antinociceptive activity of the compounds of the invention in a model of inflammatory pain.
Female CD-1 mice weighing 25-30 g were used for the test. […] The control animals were treated with the vehicle alone (MTC) via the same route.
30 minutes after the treatment, the animals received an intraperitoneal injection of acetic acid (0.7 v/v in physiological solution, 16 μl/g of body weight) in order to induce inflammatory pain and to check the effects of the test compound on the nociceptive response.
Immediately after the administration of acetic acid and for the following 20 minutes, the number of stretches, which represents the parameter for evaluation of the nociceptive response, was measured.

[5] = 10 nM, IL-1β 10 ng/ml, 22 hours

| SMILES | inhibition at 10 µM ([1]; IL-1β 10 ng/ml, 22 hours) | inhibition at 10 µM ([2]; IL-1β 10 ng/ml, 22 hours) | IC50 [2] | further results |
| --- | --- | --- | --- | --- |
| O=C(Nc1ccc2c(c1)cc(-c1ccc(F)cc1)n2CCO)c1c(Cl)cccc1Cl [Compound 36] | < 20% | 40% | 50.1 µM | – |
| CCOC(=O)CCCn1c(-c2ccccc2)cc2cc(NC(=O)c3ccccc3Cl)ccc21 [Compound 7] | < 20% | 76% | 3.98 µM | – |
| CS(=O)(=O)n1c(CCc2ccccc2)cc2cc(NC(=O)c3ccccc3Cl)ccc21 [Compound 21] | < 20% | 69% | 0.501 µM | – |
| CC(=O)OCCCn1c(-c2ccccc2)cc2cc(NC(=O)c3ccccc3Cl)ccc21 [Compound 13] | < 20% | 61% | 7.94 µM | inhibition at 10 µM [3]: < 20% |
| CCn1c(C2CCCCC2)cc2cc(NC(=O)c3ccccc3Cl)ccc21 [Compound 10] | < 20% | 78% | 1.58 µM | inhibition at 10 µM [3]: < 20%; N° of stretches ([4]; 0.01 mg/kg intraperitoneally): 47 ± 4.3; % inhibition (stretches) ([4]; 0.01 mg/kg intraperitoneally): 5.9 ± 8.76%; N° of stretches ([4]; 0.1 mg/kg intraperitoneally): 34 ± 3.2; % inhibition (stretches) ([4]; 0.1 mg/kg intraperitoneally): 33.2 ± 6.16%; N° of stretches ([4]; 1 mg/kg intraperitoneally): 33 ± 3.9; % inhibition (stretches) ([4]; 1 mg/kg intraperitoneally): 33.6 ± 8.04%; N° of stretches ([4]; 10 mg/kg intraperitoneally): 21 ± 3.2; % inhibition (stretches) ([4]; 10 mg/kg intraperitoneally): 57.5 ± 6.57% |
| O=C(Nc1ccc2c(c1)cc(C(=O)Nc1ccccc1)n2CCCO)c1ccccc1C(F)(F)F [Compound 35] | 13% | 88% | 2.51 µM | IC50 [1]: 31.6 µM |
| CS(=O)(=O)n1c(-c2cccc(C(F)(F)F)c2)cc2cc(NC(=O)c3ccccc3Cl)ccc21 [Compound 22] | 44% | 94% | 1.58 µM | IC50 [1]: 25.1 µM; inhibition at 10 µM [3]: < 20% |
| CCn1c(CCc2ccccc2)cc2cc(NC(=O)c3ccccc3Cl)ccc21 [Compound 33] | < 20% | 41% | – | – |
| CCn1c(-c2ccc(C)cc2)cc2cc(NC(=O)c3ccccc3Cl)cnc21 [Compound 1] | < 20% | 59% | – | – |
| O=C(Nc1ccc2c(c1)cc(-c1ccc(F)cc1)n2CCO)c1c(F)cccc1C(F)(F)F [Compound 38] | < 20% | 42% | 25.1 µM | – |
| CCn1c(Cc2ccccc2)cc2cc(NC(=O)c3ccccc3Cl)ccc21 [Compound 34] | 44% | 83% | 2.51 µM | – |
| COCCn1c(-c2ccccc2)cc2cc(NC(=O)c3ccccc3Cl)ccc21 [Compound 12] | < 20% | 78% | 3.16 µM | inhibition at 10 µM [3]: < 20% |
| O=C(Nc1ccc2c(c1)cc(-c1ccc(Cl)cc1)n2CCO)c1ccc(F)cc1C(F)(F)F [Compound 37] | < 20% | 73% | 6.31 µM | – |
| COc1ccc2c(c1)c(CC(=O)O)c(C)n2C(=O)c1ccc(Cl)cc1 [Indomethacin, indomethacin, reference compound] | – | – | 0.00501 µM | inhibition at 0.01 µM [1, 5]: 100%; IC50 [1]: 0.00251 µM; inhibition at 0.01 µM [2, 5]: 100%; inhibition at 0.01 µM ([3]; 10 nM): 100% |
